“And” between values parts separate entries of the source, which are not always exact repeats. Equal entries are not always repeated.
Experiments:
[1] = molecular target: T1, ABL1(Q252H)-phosphorylated (Homo sapiens, UniProt P00519, Q252H); test: Kinome scan profile; assay type: binding; settings: 10 μM
T1 construct: purchased DiscoverX (KINOMEscan)

[2] = tested on: P. falciparum NF54 asexual parasites; test: asexual parasite growth inhibition assay (SYBR Green); assay type: cell-based, Plasmodium falciparum; settings: 72 h, mean ± SD, n = 3
Protocol: Asexual parasites of P. falciparum strain NF54 were cultured as described previously. Briefly, parasites were maintained in RPMI 1640 medium containing 10% positive human serum + erythrocytes (5% haematocrit), 2.5% sodium bicarbonate and 11 µg/mL gentamicin at 37 °C with 5% CO2, 5% O2 and 90% N2. Gametocyte cultures were set up at 0.1% parasitaemia and on days 9–10 treated with 50 mM N-acetylglucosamine (NAG) to block further asexual growth. Stage III–V gametocytes were isolated by Percoll density gradient centrifugation on day 12 and returned to culture for 24 h before being used in the assay. At the time of the assay over 73% of the gametocytes were stage IV or V (Additional file 1). HepG2 cells (ATCC, cat. no. 77400) were cultured in 175-cm^2 tissue culture flasks with 30 ml growth medium at 37 °C in a 5% CO2 and 5% O2 humidified atmosphere. Growth medium was made with Dulbecco’s Modified Eagle Medium with 10% fetal bovine serum (FBS). Growth medium was replaced every other day and cells were passaged at 75% confluence.
Drug activity on asexual stage parasites was tested using a SYBR Green assay as described previously. Briefly, 2.5 μL/well complete culture medium was dispensed into each well of 1536-well plates using the Multidrop Combi followed by 23 nL compound transferring using the NX-TR Pintool. Parasites were diluted to 0.5% parasitaemia in complete culture medium with 2% haematocrit and drugs diluted in DMSO (≤0.5%). The pre-diluted parasites were dispensed into a 1536-well plate (2.5 μL/well). After 72 h incubation under the standard culture conditions, 5 μL/well of lysis buffer containing SYBR Green I was added to the parasite culture and incubated for 30 min at room temperature. The fluorescence of each well was measured in a fluorescence detection mode (Ex = 490 nm, Em = 520 nm) using a ViewLux plate reader (PerkinElmer).

MST4 = molecular target: T2, MST4 (Homo sapiens, UniProt Q9P289); test: Kinome scan profile; assay type: binding; settings: 10 μM
T2 construct: purchased DiscoverX (KINOMEscan)
T2 sequence (Q9P289 whole entry): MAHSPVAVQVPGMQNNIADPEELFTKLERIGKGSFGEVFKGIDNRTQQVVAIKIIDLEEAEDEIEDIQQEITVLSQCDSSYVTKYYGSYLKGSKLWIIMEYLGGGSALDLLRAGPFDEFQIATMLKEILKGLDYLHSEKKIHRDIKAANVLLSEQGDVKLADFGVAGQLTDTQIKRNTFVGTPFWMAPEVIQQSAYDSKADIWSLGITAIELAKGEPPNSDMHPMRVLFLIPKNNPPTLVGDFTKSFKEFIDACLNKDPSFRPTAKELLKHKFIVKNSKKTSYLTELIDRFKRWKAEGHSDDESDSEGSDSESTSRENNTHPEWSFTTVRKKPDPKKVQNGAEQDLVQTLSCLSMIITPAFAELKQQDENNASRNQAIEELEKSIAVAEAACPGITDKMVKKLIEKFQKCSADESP

SNRK = molecular target: T3, SNRK (Homo sapiens, UniProt Q9NRH2); test: Kinome scan profile; assay type: binding; settings: 10 μM
T3 construct: purchased DiscoverX (KINOMEscan)
T3 sequence (Q9NRH2 1-765): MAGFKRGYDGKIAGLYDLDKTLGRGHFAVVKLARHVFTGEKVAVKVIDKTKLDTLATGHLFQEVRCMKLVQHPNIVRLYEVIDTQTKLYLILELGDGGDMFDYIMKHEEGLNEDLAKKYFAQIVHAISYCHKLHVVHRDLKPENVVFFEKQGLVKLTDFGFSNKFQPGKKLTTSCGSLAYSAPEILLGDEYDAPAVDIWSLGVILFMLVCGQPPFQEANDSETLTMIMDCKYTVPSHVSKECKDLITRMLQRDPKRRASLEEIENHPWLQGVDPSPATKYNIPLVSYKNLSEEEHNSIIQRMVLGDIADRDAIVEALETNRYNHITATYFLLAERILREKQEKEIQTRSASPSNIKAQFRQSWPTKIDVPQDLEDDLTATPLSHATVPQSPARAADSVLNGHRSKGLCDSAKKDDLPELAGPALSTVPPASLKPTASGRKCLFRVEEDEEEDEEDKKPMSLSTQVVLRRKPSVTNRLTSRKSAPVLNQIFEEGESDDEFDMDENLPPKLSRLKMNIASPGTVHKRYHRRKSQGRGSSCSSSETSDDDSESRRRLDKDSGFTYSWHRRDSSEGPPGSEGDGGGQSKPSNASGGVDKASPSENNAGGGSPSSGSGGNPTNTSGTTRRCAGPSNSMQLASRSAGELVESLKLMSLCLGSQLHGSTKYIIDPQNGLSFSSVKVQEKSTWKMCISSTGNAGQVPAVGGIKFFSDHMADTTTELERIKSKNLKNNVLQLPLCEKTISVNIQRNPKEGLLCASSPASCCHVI

PRKG2 = molecular target: T4, PRKG2 (Homo sapiens, UniProt Q13237); test: Kinome scan profile; assay type: binding; settings: 10 μM
T4 construct: purchased DiscoverX (KINOMEscan)
T4 sequence (Q13237 1-762): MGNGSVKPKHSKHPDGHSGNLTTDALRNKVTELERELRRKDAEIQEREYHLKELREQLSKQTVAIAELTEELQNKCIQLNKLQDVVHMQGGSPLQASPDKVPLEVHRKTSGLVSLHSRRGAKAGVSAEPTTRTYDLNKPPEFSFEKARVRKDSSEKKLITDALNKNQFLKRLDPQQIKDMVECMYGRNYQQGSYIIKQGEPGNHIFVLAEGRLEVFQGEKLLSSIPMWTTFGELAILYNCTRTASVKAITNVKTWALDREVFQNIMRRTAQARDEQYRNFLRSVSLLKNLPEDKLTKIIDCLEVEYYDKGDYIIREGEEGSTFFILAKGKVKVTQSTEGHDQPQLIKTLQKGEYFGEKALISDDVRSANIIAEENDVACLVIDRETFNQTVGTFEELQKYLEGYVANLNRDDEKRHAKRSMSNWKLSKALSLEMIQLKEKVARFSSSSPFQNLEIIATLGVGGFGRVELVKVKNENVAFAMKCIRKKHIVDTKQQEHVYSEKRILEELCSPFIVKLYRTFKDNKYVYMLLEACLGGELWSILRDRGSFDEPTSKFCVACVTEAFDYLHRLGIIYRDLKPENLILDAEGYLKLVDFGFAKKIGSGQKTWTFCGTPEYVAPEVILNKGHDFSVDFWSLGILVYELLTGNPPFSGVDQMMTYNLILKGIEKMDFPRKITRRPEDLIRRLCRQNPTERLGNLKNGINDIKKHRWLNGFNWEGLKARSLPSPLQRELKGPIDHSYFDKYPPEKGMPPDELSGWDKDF

With `CCN1CCN(Cc2c(O)ccc3c(=O)c(Oc4ccccc4C(C)C)c(C(F)(F)F)oc23)CC1` [NCGC00100599] the “% Control, ABL1(Q252H)-phosphorylated” value [1] was 9.9 % Control, the IC50 [2] was 339 nM and 340 nM and the “% Control, MST4” value (MST4) was 34 % Control. For the same compound, the “% Control, SNRK” value (SNRK) was 27 % Control and the “% Control, PRKG2” value (PRKG2) was 32 % Control.

From article PMC5390467, “Novel lead structures with both Plasmodium falciparum gametocytocidal and asexual blood stage activity identified from high throughput compound screening” (Malaria Journal, 2017)
